Measurements taken from EP0224924B1, “Non-aromatic fluorallylamine MAO inhibitors” (MERRELL DOW PHARMACEUTICALS INC., priority 1985, dated 1987).

Legend:
MAO-B [1] = target: T1, MAO-B (Rattus norvegicus, UniProt P19643); assay: Inhibition of MAO in vitro, rat brain mitochondria, 14C phenethylamine (PEA) as substrate; format: biochemical; settings: ratio of the inhibitory activity against MAO-B versus MAO-A
T1 construct: in partially purified mitochondria from rat brain; from tissue; host or cells: rat brain mitochondria (partially purified, differential centrifugation)
T1 sequence (P19643 1-520): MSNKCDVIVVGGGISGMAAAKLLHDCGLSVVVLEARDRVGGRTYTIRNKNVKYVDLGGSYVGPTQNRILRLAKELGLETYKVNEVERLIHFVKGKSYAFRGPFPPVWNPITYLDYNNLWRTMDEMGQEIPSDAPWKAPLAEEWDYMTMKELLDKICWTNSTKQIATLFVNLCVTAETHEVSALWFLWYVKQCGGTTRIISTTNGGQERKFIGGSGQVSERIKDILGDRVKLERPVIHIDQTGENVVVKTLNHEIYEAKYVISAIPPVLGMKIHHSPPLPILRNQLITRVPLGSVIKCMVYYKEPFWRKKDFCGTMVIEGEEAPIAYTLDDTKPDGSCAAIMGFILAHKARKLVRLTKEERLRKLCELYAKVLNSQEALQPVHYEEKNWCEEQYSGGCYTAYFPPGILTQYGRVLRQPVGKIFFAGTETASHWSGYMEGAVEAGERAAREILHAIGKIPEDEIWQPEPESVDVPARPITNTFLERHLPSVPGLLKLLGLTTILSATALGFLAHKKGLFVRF
Description: The ability of a compound of structure 1 to inhibit MAO can be determined in vitro by the method of A. Christmas et al., Br. J. Pharmacol. 45, 490 (1972) in partially purified mitochondria from rat brain using ¹⁴C o-tyramine or ¹⁴C phenethylamine and ¹⁴C 5-HT as the substrate. The MAO inhibitory activity of a compound is expressed as the "IC₅₀" value, which is the molar concentration required to produce 50% inhibition of the enzyme. The IC₅₀ values for certain compounds of structure 1 were determined using the above-described method, and the results are set forth in Table I.
The selectivity of a compound of structure 1 with respect to inhibition of MAO-A and MAO-B can be determined by preparing mitochondria from rat brain by homogenation in phosphate buffer (0.1 M, pH 7.2) followed by differential centrifugation. The mitochondria are suspended in the same buffer, the test compound is added at the desired concentration, and the system is incubated. At different time intervals, aliquots are taken and MAO activity is measured using ¹⁴C 5-hydroxytryptamine (5HT; a preferred substrate for MAO-A) or 14C-phenethylamine (PEA; a preferred substrate for MAO-B) as the substrates. The selectivity is expressed as the ratio of the inhibitory activity against MAO-B versus the inhibitory activity against MAO-A. (Zreika, McDonald, Bey, Palfreyman, J. Neurochem., 43, 448-454 (1984)).

MAO-A = assay: Inhibition of MAO ex vivo, brain mitochondrial fraction after oral dosing, 14C 5-hydroxytryptamine as substrate; format: in vivo; settings: rats, orally (po)
Procedure: (§1) The ability of a compound of formula 1 to inhibit MAO can be determined ex vivo by the following procedure:
(§2) The test compound is administered orally (po) to rats and the animals are killed at various times after treatment. The brain is removed and a mitochondrial fraction, described in Example 12 is prepared. MAO activity is determined using ¹⁴C p-tyramine, as the substrate. Selectivity can be determined by repeating the above-described test using either ¹⁴C 5-hydroxytryptamine (for MAO-A) or ¹⁴C phenethylamine (for MAO-B) as the substrate for determining the % inhibition.

MAO-B [2] = assay: Inhibition of MAO ex vivo, brain mitochondrial fraction after oral dosing, 14C phenethylamine as substrate; format: in vivo; settings: rats, orally (po)
Procedure: as §1, §2

Row | SMILES | MAO B SELECTIVITY (MAO-B [1]) | ED50 for MAO-A inhibition (MAO-A) | ED50 for MAO-B inhibition (MAO-B [2])
1 | CCCC/C(=C\F)CN [(E)-2-Butyl-3-fluoroallylamine] | 55 | – | –
2 | CCCCCC/C(=C\F)CN [(E)-2-Hexyl-3-fluoroallylamine] | 24 | – | –
3 | CC(C)C/C(=C\F)CN [(E)-2-Isobutyl-3-fluoroallylamine] | 77 | 0.8 mg/kg | 0.05 mg/kg
4 | CC(C)/C(=C\F)CN [(E)-2-Isopropyl-3-fluoroallylamine] | 68 | – | –
5 | CCC(C)/C(=C\F)CN (stereo not drawn) [(E)-2-sec-Butyl-3-fluoroallylamine] | 24 | – | –

Further lines, with some results ahead:

Row | MAO B SELECTIVITY (MAO-B [1]) | SMILES | ED50 for MAO-A inhibition (MAO-A) | ED50 for MAO-B inhibition (MAO-B [2])
6 | 13 | CCCCCCC/C(=C\F)CN [(E)-2-Heptyl-3-fluoroallylamine] | – | –
7 | 1.5 | CCCCCCCCCCC/C(=C\F)CN [(E)-2-Undecyl-3-fluoroallylamine] | – | –
